Reference: ChEMBL document CHEMBL1201862, “PubChem BioAssay data set” (2004)
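48-hour exposure; five concentrations; linearly interpolated endpoints. GI50 marks 50% less growth.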 Active and inactive are the calls of the source. No stated cut-off is given here; in the data, active = GI50 up to about 1.1 µM and inactive = higher.

Assays:
Experiment in all cases: growth of human tumour cells (NCI), 48 h
SF-539 = tested on: SF-539
RXF 393 = tested on: RXF 393
HCT-116 = tested on: HCT-116
OVCAR-4 = tested on: OVCAR-4
SF-295 = tested on: SF-295
NCI-H23 = tested on: NCI-H23
K562 = tested on: K562
UACC-62 = tested on: UACC-62
SNB-75 = tested on: SNB-75
786-0 = tested on: 786-0
TK-10 = tested on: TK-10
ACHN = tested on: ACHN
UACC-257 = tested on: UACC-257
SNB-19 = tested on: SNB-19
SW-620 = tested on: SW-620
HCT-15 = tested on: HCT-15
COLO 205 = tested on: COLO 205
UO-31 = tested on: UO-31
CAKI-1 = tested on: CAKI-1
HL-60 = tested on: HL-60
LXFL 529 = tested on: LXFL 529
SF-268 = tested on: SF-268
OVCAR-5 = tested on: OVCAR-5
EKVX = tested on: EKVX
NCI-H522 = tested on: NCI-H522
M14 = tested on: M14
SN12C = tested on: SN12C
KM12 = tested on: KM12
IGROV-1 = tested on: IGROV-1
RPMI-8226 = tested on: RPMI-8226
DLD-1 = tested on: DLD-1
DMS-114 = tested on: DMS-114
U-251 = tested on: U-251
KM-20L2 = tested on: KM-20L2
LOX IMVI = tested on: LOX IMVI
SK-MEL-5 = tested on: SK-MEL-5
OVCAR-8 = tested on: OVCAR-8
OVCAR-3 = tested on: OVCAR-3
NCI-H460 = tested on: NCI-H460
SNB-78 = tested on: SNB-78
HCC 2998 = tested on: HCC 2998
DMS-273 = tested on: DMS-273
HOP-62 = tested on: HOP-62
HT-29 = tested on: HT-29
NCI-H226 = tested on: NCI-H226
CCRF-CEM = tested on: CCRF-CEM
M19-MEL = tested on: M19-MEL
A549 = tested on: A549
RXF 631 = tested on: RXF 631
HOP-92 = tested on: HOP-92
SK-MEL-28 = tested on: SK-MEL-28
A498 = tested on: A498
Malme-3M = tested on: Malme-3M
SK-OV-3 = tested on: SK-OV-3
XF498 = tested on: XF498
SK-MEL-2 = tested on: SK-MEL-2
MOLT-4 = tested on: MOLT-4
SR = tested on: SR

SMILES: CCOC(=O)C1N(S(=O)(=O)c2ccc(C)cc2)CCC12C(c1ccc(OC)cc1)NC1CCCCC12 (configuration not stated)
- GI50 (SF-539): 55.7 µM (inactive)
- GI50 (RXF 393): 44.4 µM (inactive)
- GI50 (HCT-116): > 100 µM (inactive)
- GI50 (OVCAR-4): 27.2 µM (inactive)
- GI50 (SF-295): 77.6 µM (inactive)
- GI50 (NCI-H23): > 100 µM (inactive)
- GI50 (K562): > 100 µM (inactive)
- GI50 (UACC-62): > 100 µM (inactive)
- GI50 (SNB-75): 28.9 µM (inactive)
- GI50 (786-0): 68.7 µM (inactive)
- GI50 (TK-10): > 100 µM (inactive)
- GI50 (ACHN): > 100 µM (inactive)
- GI50 (UACC-257): > 100 µM (inactive)
- GI50 (SNB-19): > 100 µM (inactive)
- GI50 (SW-620): > 100 µM (inactive)
- GI50 (HCT-15): > 100 µM
- GI50 (COLO 205): > 100 µM (inactive)
- GI50 (UO-31): > 100 µM (inactive)
- GI50 (CAKI-1): > 100 µM (inactive)
- GI50 (HL-60): > 100 µM (inactive)
- GI50 (LXFL 529): > 100 µM (inactive)
- GI50 (SF-268): > 100 µM (inactive)
- GI50 (OVCAR-5): > 100 µM (inactive)
- GI50 (EKVX): > 100 µM (inactive)
- GI50 (NCI-H522): > 100 µM (inactive)
- GI50 (M14): > 100 µM (inactive)
- GI50 (SN12C): > 100 µM (inactive)
- GI50 (KM12): > 100 µM (inactive)
- GI50 (IGROV-1): > 100 µM (inactive)
- GI50 (RPMI-8226): > 100 µM (inactive)
- GI50 (DLD-1): > 100 µM (inactive)
- GI50 (DMS-114): > 100 µM (inactive)
- GI50 (U-251): 70.8 µM (inactive)
- GI50 (KM-20L2): > 100 µM (inactive)
- GI50 (LOX IMVI): > 100 µM (inactive)
- GI50 (SK-MEL-5): > 100 µM (inactive)
- GI50 (OVCAR-8): > 100 µM (inactive)
- GI50 (OVCAR-3): > 100 µM (inactive)
- GI50 (NCI-H460): > 100 µM (inactive)
- GI50 (SNB-78): > 100 µM (inactive)
- GI50 (HCC 2998): > 100 µM (inactive)
- GI50 (DMS-273): > 100 µM (inactive)
- GI50 (HOP-62): 98.6 µM (inactive)
- GI50 (HT-29): > 100 µM (inactive)
- GI50 (NCI-H226): > 100 µM (inactive)
- GI50 (CCRF-CEM): > 100 µM (inactive)
- GI50 (M19-MEL): > 100 µM (inactive)
- GI50 (A549): > 100 µM (inactive)
- GI50 (RXF 631): 97.1 µM (inactive)
- GI50 (HOP-92): 22.9 µM (inactive)
- GI50 (SK-MEL-28): > 100 µM (inactive)
- GI50 (A498): > 100 µM (inactive)
- GI50 (Malme-3M): 67.3 µM (inactive)
- GI50 (SK-OV-3): > 100 µM (inactive)

SMILES: Cc1cccc(NC(=O)Cc2nc3ccccc3s2)c1C
- GI50 (SF-539): > 100 µM (inactive)
- GI50 (RXF 393): > 100 µM (inactive)
- GI50 (OVCAR-4): > 100 µM (inactive)
- GI50 (SF-295): > 100 µM (inactive)
- GI50 (NCI-H23): > 100 µM (inactive)
- GI50 (K562): > 100 µM (inactive)
- GI50 (UACC-62): > 100 µM (inactive)
- GI50 (SNB-75): > 100 µM (inactive)
- GI50 (786-0): > 100 µM (inactive)
- GI50 (TK-10): > 100 µM (inactive)
- GI50 (ACHN): > 100 µM (inactive)
- GI50 (UACC-257): > 100 µM (inactive)
- GI50 (SNB-19): > 100 µM (inactive)
- GI50 (SW-620): > 100 µM (inactive)
- GI50 (HCT-15): > 100 µM
- GI50 (COLO 205): > 100 µM (inactive)
- GI50 (UO-31): > 100 µM (inactive)
- GI50 (CAKI-1): > 100 µM (inactive)
- GI50 (HL-60): > 100 µM (inactive)
- GI50 (LXFL 529): > 100 µM (inactive)
- GI50 (SF-268): > 100 µM (inactive)
- GI50 (OVCAR-5): > 100 µM (inactive)
- GI50 (EKVX): > 100 µM (inactive)
- GI50 (NCI-H522): > 100 µM (inactive)
- GI50 (M14): > 100 µM (inactive)
- GI50 (SN12C): > 100 µM (inactive)
- GI50 (KM12): > 100 µM (inactive)
- GI50 (IGROV-1): > 100 µM (inactive)
- GI50 (RPMI-8226): > 100 µM (inactive)
- GI50 (DLD-1): > 100 µM (inactive)
- GI50 (DMS-114): > 100 µM (inactive)
- GI50 (KM-20L2): > 100 µM (inactive)
- GI50 (XF498): > 100 µM (inactive)
- GI50 (LOX IMVI): > 100 µM (inactive)
- GI50 (SK-MEL-5): > 100 µM (inactive)
- GI50 (OVCAR-8): > 100 µM (inactive)
- GI50 (SK-MEL-2): > 100 µM (inactive)
- GI50 (OVCAR-3): > 100 µM (inactive)
- GI50 (NCI-H460): > 100 µM (inactive)
- GI50 (MOLT-4): > 100 µM (inactive)
- GI50 (HCC 2998): > 100 µM (inactive)
- GI50 (DMS-273): > 100 µM (inactive)
- GI50 (HOP-62): > 100 µM (inactive)
- GI50 (HT-29): > 100 µM (inactive)
- GI50 (NCI-H226): > 100 µM (inactive)
- GI50 (CCRF-CEM): > 100 µM (inactive)
- GI50 (M19-MEL): > 100 µM (inactive)
- GI50 (A549): > 100 µM (inactive)
- GI50 (RXF 631): > 100 µM (inactive)
- GI50 (SK-MEL-28): > 100 µM (inactive)
- GI50 (A498): 83.8 µM (inactive)
- GI50 (Malme-3M): > 100 µM (inactive)
- GI50 (SK-OV-3): > 100 µM (inactive)

SMILES: C/C(=N\NC(=N)N)C(CN1CCCCC1)C(c1ccccc1)c1c(O)c2ccccc2oc1=O (configuration not stated)
- GI50 (SF-539): > 100 µM (inactive)
- GI50 (RXF 393): > 100 µM (inactive)
- GI50 (HCT-116): > 100 µM (inactive)
- GI50 (OVCAR-4): > 100 µM (inactive)
- GI50 (SF-295): > 100 µM (inactive)
- GI50 (NCI-H23): > 100 µM (inactive)
- GI50 (K562): > 100 µM (inactive)
- GI50 (UACC-62): > 100 µM (inactive)
- GI50 (SNB-75): > 100 µM (inactive)
- GI50 (786-0): > 100 µM (inactive)
- GI50 (TK-10): > 100 µM (inactive)
- GI50 (ACHN): > 100 µM (inactive)
- GI50 (UACC-257): > 100 µM (inactive)
- GI50 (SNB-19): > 100 µM (inactive)
- GI50 (SW-620): > 100 µM (inactive)
- GI50 (HCT-15): > 100 µM
- GI50 (COLO 205): > 100 µM (inactive)
- GI50 (CAKI-1): > 100 µM (inactive)
- GI50 (HL-60): > 100 µM (inactive)
- GI50 (LXFL 529): > 100 µM (inactive)
- GI50 (SF-268): > 100 µM (inactive)
- GI50 (OVCAR-5): > 100 µM (inactive)
- GI50 (EKVX): > 100 µM (inactive)
- GI50 (NCI-H522): 43.6 µM (inactive)
- GI50 (M14): > 100 µM (inactive)
- GI50 (SN12C): > 100 µM (inactive)
- GI50 (IGROV-1): > 100 µM (inactive)
- GI50 (RPMI-8226): > 100 µM (inactive)
- GI50 (DLD-1): > 100 µM (inactive)
- GI50 (DMS-114): > 100 µM (inactive)
- GI50 (KM-20L2): > 100 µM (inactive)
- GI50 (XF498): > 100 µM (inactive)
- GI50 (LOX IMVI): > 100 µM (inactive)
- GI50 (OVCAR-8): > 100 µM (inactive)
- GI50 (SK-MEL-2): > 100 µM (inactive)
- GI50 (OVCAR-3): > 100 µM (inactive)
- GI50 (HCC 2998): > 100 µM (inactive)
- GI50 (HOP-62): > 100 µM (inactive)
- GI50 (HT-29): > 100 µM (inactive)
- GI50 (NCI-H226): > 100 µM (inactive)
- GI50 (CCRF-CEM): > 100 µM (inactive)
- GI50 (M19-MEL): > 100 µM (inactive)
- GI50 (A549): > 100 µM (inactive)
- GI50 (RXF 631): > 100 µM (inactive)
- GI50 (HOP-92): 47.8 µM (inactive)
- GI50 (SK-MEL-28): > 100 µM (inactive)
- GI50 (A498): > 100 µM (inactive)
- GI50 (Malme-3M): > 100 µM (inactive)
- GI50 (SR): > 100 µM (inactive)
- GI50 (SK-OV-3): > 100 µM (inactive)
